Data reported in PMC7265639, “Freshwater viral metagenome reveals novel and functional phage-borne antibiotic resistance genes” (Microbiome, 2020).
Converted amounts (≈) assume the structure as drawn.

Tests used:
[1] = test system: T1, E. coli BL21 (DE3)-pET-30a(+)-HRV-1; assay: microbe, parasite or virus in culture; set-up: species or system Escherichia coli BL21 (DE3) transformants; agar dilution MIC on Mueller-Hinton agar with 1 mM IPTG; details: Escherichia coli, HRV1, read-out: MIC (μg/mL) for E. coli strain / E. coli BL21 (DE3)-pET-30a(+)-HRV-1
T1 construct: BL21 (DE3) pET-30a(+)/blaHRV-1-His6 transformant expressing HRV-1 beta-lactamase
Experimental: (§1) When cultures of the cloned E. coli BL21 (DE3) cells reached approximately 0.6 at OD600, 1 mM isopropyl β-D-1-thiogalactopyranoside was added to induce expression of the blaHRV-1 or blaHRVM-1 gene followed by culture at 16 °C for 16 h. Susceptibility to benzylpenicillin, ampicillin, piperacillin, ticarcillin, oxacillin, cloxacillin, cephalothin, cefoxitin, cefotaxime, ceftazidime, cefepime, aztreonam, meropenem, imipenem (Sigma-Aldrich), and ertapenem (Merck & Co., Inc, Kenilworth, NJ, USA) against cloned E. coli BL21 (DE3) was assessed using the agar dilution technique in Mueller-Hinton agar (Difco Laboratories Inc., Detroit, MI, USA) including 1 mM IPTG with an inoculum of 10^5 CFU per spot. The PCR products were double-digested with NdeI and XhoI for the HRV-1 and NcoI and XhoI for the HRVM-1, and the digested DNAs were cloned into corresponding restriction enzyme-digested pET-28a(+) or pET-30a(+) vectors (Novagen, Madison, WI, USA). Recombinant plasmids [pET-30a(+)/blaHRV-1-His6 and pET-28a(+)/blaHRVM-1-His6] were transformed into E. coli BL21 (DE3) (Invitrogen, Carlsbad, CA, USA).

[2] = test system: T2, E. coli BL21 (DE3)-pET-28a(+)-HRVM-1; assay: microbe, parasite or virus in culture; set-up: species or system Escherichia coli BL21 (DE3) transformants; agar dilution MIC on Mueller-Hinton agar with 1 mM IPTG; details: Escherichia coli, read-out: MIC (μg/mL) for E. coli strain / E. coli BL21 (DE3)-pET-28a(+)-HRVM-1
T2 construct: BL21 (DE3) pET-28a(+)/blaHRVM-1-His6 transformant expressing HRVM-1 metallo-beta-lactamase
Experimental: as §1

[3] = test system: T3, HRV-1; assay: UV spectrophotometric beta-lactam hydrolysis, steady-state kinetics; type: biochemical; details: 10 mM MES pH 6.8, 30 °C, 20 μg/mL BSA
T3 construct: gene blaHRV-1; expressed in E. coli BL21(DE3) from pET-30a(+)/blaHRV-1-His6 (NdeI/XhoI); His6 tag removal by enterokinase stated; purified

[4] = test system: T4, HRVM-1; assay: as above; type: biochemical; details: 50 mM MES pH 7.0, 100 μM ZnCl2, 100 μg/mL BSA, 30 °C
T4 construct: gene blaHRVM-1; expressed in E. coli BL21(DE3) from pET-28a(+)/blaHRVM-1-His6 (NcoI/XhoI); His6 tag removal by enterokinase stated; purified
Excerpt: UV spectrophotometric beta-lactam hydrolysis, steady-state kinetics on HRVM-1 | the kcat/km of HRVM-1 for imipenem

Compound	MIC [1] [µg/mL]	MIC [2] [µg/mL]	Km [3] [µM]	Km [4] [µM]
CC1(C)S[C@@H]2[C@H](NC(=O)[C@H](N)c3ccccc3)C(=O)N2[C@H]1C(=O)O [Ampicillin]	64 (≈ 183 µM)	32 (≈ 91.6 µM)	–	–
C[C@H]1[C@H](NC(=O)/C(=N\OC(C)(C)C(=O)O)c2csc(N)n2)C(=O)N1S(=O)(=O)O [Aztreonam]	8 (≈ 18.4 µM)	8 (≈ 18.4 µM)	–	–
CC1(C)S[C@@H]2[C@H](NC(=O)Cc3ccccc3)C(=O)N2[C@H]1C(=O)O [Benzylpenicillin]	512 (≈ 1530 µM)	256 (≈ 766 µM)	–	–
CO/N=C(\C(=O)N[C@@H]1C(=O)N2C(C(=O)[O-])=C(C[N+]3(C)CCCC3)CS[C@H]12)c1csc(N)n1 [Cefepime]	4 (≈ 8.32 µM)	4 (≈ 8.32 µM)	–	–
CO[C@@]1(NC(=O)Cc2cccs2)C(=O)N2C(C(=O)O)=C(COC(N)=O)CS[C@@H]21 [Cefoxitin]	4 (≈ 9.36 µM)	4 (≈ 9.36 µM)	–	–
CC(=O)OCC1=C(C(=O)O)N2C(=O)[C@@H](NC(=O)Cc3cccs3)[C@H]2SC1 [Cephalothin]	32 (≈ 80.7 µM)	32 (≈ 80.7 µM)	–	–
Cc1onc(-c2ccccc2Cl)c1C(=O)N[C@@H]1C(=O)N2[C@@H]1SC(C)(C)[C@@H]2C(=O)O [Cloxacillin]	256 (≈ 587 µM)	128 (≈ 294 µM)	–	–
C[C@@H](O)[C@H]1C(=O)N2C(C(=O)O)=C(S[C@@H]3CN[C@H](C(=O)Nc4cccc(C(=O)O)c4)C3)[C@H](C)[C@H]12 [Ertapenem]	0.5 (≈ 1.05 µM)	0.5 (≈ 1.05 µM)	–	–
C[C@@H](O)[C@H]1C(=O)N2C(C(=O)O)=C(S[C@@H]3CN[C@H](C(=O)N(C)C)C3)[C@H](C)[C@H]12 [Meropenem]	0.5 (≈ 1.3 µM)	0.5 (≈ 1.3 µM)	–	–
Cc1onc(-c2ccccc2)c1C(=O)N[C@@H]1C(=O)N2[C@@H]1SC(C)(C)[C@@H]2C(=O)O [Oxacillin]	256 (≈ 638 µM)	128 (≈ 319 µM)	–	–
CCN1CCN(C(=O)N[C@@H](C(=O)N[C@@H]2C(=O)N3[C@@H]2SC(C)(C)[C@@H]3C(=O)O)c2ccccc2)C(=O)C1=O [Piperacillin]	64 (≈ 124 µM)	32 (≈ 61.8 µM)	–	–
CC1(C)S[C@@H]2[C@H](NC(=O)[C@H](C(=O)O)c3ccsc3)C(=O)N2[C@H]1C(=O)O [Ticarcillin]	32 (≈ 83.2 µM)	32 (≈ 83.2 µM)	–	–
CO/N=C(\C(=O)N[C@@H]1C(=O)N2C(C(=O)O)=C(COC(C)=O)CS[C@H]12)c1csc(N)n1 [cefotaxime]	8 (≈ 17.6 µM)	8 (≈ 17.6 µM)	11.74 ± 0.01	–
CC(C)(O/N=C(\C(=O)N[C@@H]1C(=O)N2C(C(=O)[O-])=C(C[n+]3ccccc3)CS[C@H]12)c1csc(N)n1)C(=O)O [ceftazidime]	8 (≈ 14.6 µM)	8 (≈ 14.6 µM)	12.15 ± 0.02	–
C[C@@H](O)[C@H]1C(=O)N2C(C(=O)O)=C(SCCN=CN)C[C@H]12 [imipenem]	0.5 (≈ 1.67 µM)	0.5 (≈ 1.67 µM)	–	5.42 ± 0.01
